In patent US12077503B2, “Substituted cyclic amides and their use as herbicides” (FMC CORPORATION, priority 2015, dated 2024):

Experiments:
Type in all cases: in vivo
[1] = test system: barnyardgrass (Echinochloa crus-galli); experiment: Test G Pre-Emergence Protocol; conditions: Echinochloa crus-galli, pre-emergence, 312 h, evaluated after 13 days; for pest or weed control at 15.625 g/ha: 15.625 g ai/ha, read-out: Barnyard grass damage rating (100=total damage to plant; 0=no damage to plant); for pest or weed control at 62.5 g/ha: 62.5 g ai/ha, 100=total damage to plant, 0=no damage to plant, read-out: plant damage rating, Barnyardgrass; for pest or weed control at 250 g/ha: 250 g ai/ha, read-out: Barnyardgrass damage rating (100=total damage to plant; 0=no damage to plant)
Outline: (§1)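 Visual injury (0–100) at day 13 after a single pre-emergence spray. Rates: 15.625, 62.5, 250 g/ha in acetone–water 50:50 with 0.5% Tween 20. Growth conditions: 24/16° C, 14 h light, 65% humidity.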

corn (Zea mays) [2] = experiment: Test G Pre-Emergence Protocol; conditions: Zea mays, pre-emergence, 312 h, evaluated after 13 days; for plant injury at 15.625 g/ha: 15.625 g ai/ha; for plant injury at 15.625 g/ha / plant injury at 250 g/ha: read-out: Corn damage rating (100=total damage to plant; 0=no damage to plant); for plant injury at 62.5 g/ha: 62.5 g ai/ha, 100=total damage to plant, 0=no damage to plant, read-out: plant damage rating, Corn; for plant injury at 250 g/ha: 250 g ai/ha
Outline: as §1

[3] = test system: giant foxtail (Setaria faberi); experiment: Test G Pre-Emergence Protocol; conditions: Setaria faberi, pre-emergence, 312 h, evaluated after 13 days; for pest or weed control at 15.625 g/ha: 15.625 g ai/ha; for pest or weed control at 15.625 g/ha / pest or weed control at 250 g/ha: read-out: Foxtail, Giant damage rating (100=total damage to plant; 0=no damage to plant); for pest or weed control at 62.5 g/ha: 62.5 g ai/ha, 100=total damage to plant, 0=no damage to plant, read-out: plant damage rating, Foxtail, Giant; for pest or weed control at 250 g/ha: 250 g ai/ha
Outline: as §1

[4] = test system: ivy-leaved morning glory (Ipomoea hederacea); experiment: Test G Pre-Emergence Protocol; conditions: Ipomoea, pre-emergence, 312 h, evaluated after 13 days; for pest or weed control at 15.625 g/ha: 15.625 g ai/ha, read-out: Morning-glory, Ivy-leaved damage rating (100=total damage to plant; 0=no damage to plant); for pest or weed control at 62.5 g/ha: 62.5 g ai/ha, 100=total damage to plant, 0=no damage to plant, read-out: plant damage rating, Morningglory, Ivy-leaved; for pest or weed control at 250 g/ha: 250 g ai/ha, read-out: Morningglory, Ivy-leaved damage rating (100=total damage to plant; 0=no damage to plant)
Outline: as §1

[5] = test system: redroot pigweed (Amaranthus retroflexus); experiment: Test G Pre-Emergence Protocol; conditions: Amaranthus retroflexus, pre-emergence, 312 h, evaluated after 13 days; for pest or weed control at 15.625 g/ha: 15.625 g ai/ha; for pest or weed control at 15.625 g/ha / pest or weed control at 250 g/ha: read-out: Pigweed, Redroot damage rating (100=total damage to plant; 0=no damage to plant); for pest or weed control at 62.5 g/ha: 62.5 g ai/ha, 100=total damage to plant, 0=no damage to plant, read-out: plant damage rating, Pigweed, Redroot; for pest or weed control at 250 g/ha: 250 g ai/ha
Outline: as §1

[6] = test system: velvetleaf (Abutilon theophrasti); experiment: Test G Pre-Emergence Protocol; conditions: Abutilon theophrasti, pre-emergence, 312 h, evaluated after 13 days; for pest or weed control at 15.625 g/ha: 15.625 g ai/ha; for pest or weed control at 15.625 g/ha / pest or weed control at 250 g/ha: read-out: Velvetleaf damage rating (100=total damage to plant; 0=no damage to plant); for pest or weed control at 62.5 g/ha: 62.5 g ai/ha, 100=total damage to plant, 0=no damage to plant, read-out: plant damage rating, Velvetleaf; for pest or weed control at 250 g/ha: 250 g ai/ha
Outline: as §1

[7] = test system: barnyardgrass (Echinochloa crus-galli); experiment: Test G Post-Emergence Protocol; conditions: Echinochloa crus-galli, post-emergence, 312 h; for pest or weed control at 15.625 g/ha: 15.625 g ai/ha, evaluated after 13 days (100=total damage to plant; 0=no damage to plant), read-out: Barnyardgrass damage rating; for pest or weed control at 62.5 g/ha: 62.5 g ai/ha, read-out: Barnyardgrass damage rating (100=total damage to plant; 0=no damage to plant); for pest or weed control at 62.5 g/ha / pest or weed control at 250 g/ha: evaluated after 13 days; for pest or weed control at 250 g/ha: 250 g ai/ha, read-out: damage to plant, Barnyardgrass (100=total damage to plant; 0=no damage to plant)
Outline: (§2)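 Damage was rated 13 days after treatment from 0 (none) to 100 (plant killed). Compound was applied as a spray at 15.625, 62.5 or 250 g/ha in 50:50 acetone/water containing 0.5% Tween 20, onto 8-day-old potted plants kept in a glasshouse (24/16 °C, 14 h light, 65% humidity).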

corn (Zea mays) [8] = experiment: Test G Post-Emergence Protocol; conditions: Zea mays, post-emergence, 312 h; for plant injury at 15.625 g/ha: 15.625 g ai/ha, evaluated after 13 days (100=total damage to plant; 0=no damage to plant), read-out: Corn damage rating; for plant injury at 62.5 g/ha: 62.5 g ai/ha, read-out: Corn damage rating (100=total damage to plant; 0=no damage to plant); for plant injury at 62.5 g/ha / plant injury at 250 g/ha: evaluated after 13 days; for plant injury at 250 g/ha: 250 g ai/ha, read-out: damage to plant, Corn (100=total damage to plant; 0=no damage to plant)
Outline: as §2

[9] = test system: giant foxtail (Setaria faberi); experiment: Test G Post-Emergence Protocol; conditions: Setaria faberi, post-emergence, 312 h; for pest or weed control at 15.625 g/ha: 15.625 g ai/ha, evaluated after 13 days (100=total damage to plant; 0=no damage to plant), read-out: Foxtail, Giant damage rating; for pest or weed control at 62.5 g/ha: 62.5 g ai/ha, read-out: Foxtail, Giant damage rating (100=total damage to plant; 0=no damage to plant); for pest or weed control at 62.5 g/ha / pest or weed control at 250 g/ha: evaluated after 13 days; for pest or weed control at 250 g/ha: 250 g ai/ha, read-out: damage to plant, Foxtail, Giant (100=total damage to plant; 0=no damage to plant)
Outline: as §2

[10] = test system: ivy-leaved morning glory (Ipomoea hederacea); experiment: Test G Post-Emergence Protocol; conditions: Ipomoea, post-emergence, 312 h; for pest or weed control at 15.625 g/ha: 15.625 g ai/ha, evaluated after 13 days (100=total damage to plant; 0=no damage to plant), read-out: Morningglory, Ivy-leaved damage rating; for pest or weed control at 62.5 g/ha: 62.5 g ai/ha, read-out: Morningglory, Ivy-leaved damage rating (100=total damage to plant; 0=no damage to plant); for pest or weed control at 62.5 g/ha / pest or weed control at 250 g/ha: evaluated after 13 days; for pest or weed control at 250 g/ha: 250 g ai/ha, read-out: damage to plant, Morningglory, Ivy-leaved (100=total damage to plant; 0=no damage to plant)
Outline: as §2

[11] = test system: redroot pigweed (Amaranthus retroflexus); experiment: Test G Post-Emergence Protocol; conditions: Amaranthus retroflexus, post-emergence, 312 h; for pest or weed control at 15.625 g/ha: 15.625 g ai/ha, evaluated after 13 days (100=total damage to plant; 0=no damage to plant), read-out: Pigweed, Redroot damage rating; for pest or weed control at 62.5 g/ha: 62.5 g ai/ha, read-out: Pigweed, Redroot damage rating (100=total damage to plant; 0=no damage to plant); for pest or weed control at 62.5 g/ha / pest or weed control at 250 g/ha: evaluated after 13 days; for pest or weed control at 250 g/ha: 250 g ai/ha, read-out: damage to plant, Pigweed, Redroot (100=total damage to plant; 0=no damage to plant)
Outline: as §2

[12] = test system: velvetleaf (Abutilon theophrasti); experiment: Test G Post-Emergence Protocol; conditions: Abutilon theophrasti, post-emergence, 312 h; for pest or weed control at 15.625 g/ha: 15.625 g ai/ha, evaluated after 13 days (100=total damage to plant; 0=no damage to plant), read-out: Velvetleaf damage rating; for pest or weed control at 62.5 g/ha: 62.5 g ai/ha, read-out: Velvetleaf damage rating (100=total damage to plant; 0=no damage to plant); for pest or weed control at 62.5 g/ha / pest or weed control at 250 g/ha: evaluated after 13 days; for pest or weed control at 250 g/ha: 250 g ai/ha, read-out: damage to plant, Velvetleaf (100=total damage to plant; 0=no damage to plant)
Outline: as §2

| SMILES | pest or weed control at 15.625 g/ha [1] | pest or weed control at 62.5 g/ha [1] | pest or weed control at 250 g/ha [1] | plant injury at 15.625 g/ha (corn (Zea mays) [2]) | plant injury at 62.5 g/ha (corn (Zea mays) [2]) | plant injury at 250 g/ha (corn (Zea mays) [2]) | pest or weed control at 15.625 g/ha [3] | pest or weed control at 62.5 g/ha [3] | pest or weed control at 250 g/ha [3] | pest or weed control at 15.625 g/ha [4] | pest or weed control at 62.5 g/ha [4] | pest or weed control at 250 g/ha [4] | pest or weed control at 15.625 g/ha [5] | pest or weed control at 62.5 g/ha [5] | pest or weed control at 250 g/ha [5] | pest or weed control at 15.625 g/ha [6] | pest or weed control at 62.5 g/ha [6] | pest or weed control at 250 g/ha [6] | pest or weed control at 15.625 g/ha [7] | pest or weed control at 62.5 g/ha [7] | further results |
| --- | --- | --- | --- | --- | --- | --- | --- | --- | --- | --- | --- | --- | --- | --- | --- | --- | --- | --- | --- | --- | --- |
| CN1C[C@@H](c2ccc(C(F)(F)F)cc2)[C@H](C(=O)Nc2cc(Cl)n[nH]2)C1=O (racemic) [Compound 1632] | 0% | 0% | 0% | 0% | 0% | 0% | 0% | 0% | 0% | 0% | 0% | 0% | 0% | 0% | 0% | 0% | 0% | 0% | 0% | 0% | pest or weed control at 250 g/ha [7]: 10%; plant injury at 15.625 g/ha (corn (Zea mays) [8]): 0%; plant injury at 62.5 g/ha (corn (Zea mays) [8]): 0%; plant injury at 250 g/ha (corn (Zea mays) [8]): 0%; pest or weed control at 15.625 g/ha [9]: 0%; pest or weed control at 62.5 g/ha [9]: 0%; pest or weed control at 250 g/ha [9]: 20%; pest or weed control at 15.625 g/ha [10]: 0%; pest or weed control at 62.5 g/ha [10]: 0%; pest or weed control at 250 g/ha [10]: 0%; pest or weed control at 15.625 g/ha [11]: 0%; pest or weed control at 62.5 g/ha [11]: 0%; pest or weed control at 250 g/ha [11]: 20%; pest or weed control at 15.625 g/ha [12]: 0%; pest or weed control at 62.5 g/ha [12]: 0%; pest or weed control at 250 g/ha [12]: 0% |
| Cc1ncc(NC(=O)[C@@H]2C(=O)N(C)C[C@H]2c2ccc(C(F)(F)F)cc2)s1 (racemic) [Compound 1595] | 0% | 0% | 0% | 0% | 0% | 0% | 0% | 0% | 0% | 0% | 0% | 0% | 0% | 0% | 0% | 0% | 0% | 0% | 10% | 10% | pest or weed control at 250 g/ha [7]: 10%; plant injury at 15.625 g/ha (corn (Zea mays) [8]): 0%; plant injury at 62.5 g/ha (corn (Zea mays) [8]): 60%; plant injury at 250 g/ha (corn (Zea mays) [8]): 0%; pest or weed control at 15.625 g/ha [9]: 0%; pest or weed control at 62.5 g/ha [9]: 0%; pest or weed control at 250 g/ha [9]: 10%; pest or weed control at 15.625 g/ha [10]: 0%; pest or weed control at 62.5 g/ha [10]: 60%; pest or weed control at 250 g/ha [10]: 20%; pest or weed control at 15.625 g/ha [11]: 0%; pest or weed control at 62.5 g/ha [11]: 10%; pest or weed control at 250 g/ha [11]: 20%; pest or weed control at 15.625 g/ha [12]: 0%; pest or weed control at 62.5 g/ha [12]: 10%; pest or weed control at 250 g/ha [12]: 10% |
